{
  "source": "patent US20250034520A1",
  "about": "“INCREASING DEVELOPMENTAL POTENTIAL OF HUMAN PREIMPLANTATION EMBRYOS BY REDUCING GENETIC INSTABILITY, ANEUPLOIDIES AND CHROMOSOMAL MOSAICISM” (THE TRUSTEES OF COLUMBIA UNIVERSITY IN THE CITY OF NEW YORK, priority 2022, published 2025)",
  "system": "human zygotes and parthenotes",
  "experiment": "timing of mitotic entry in human zygotes and parthenotes",
  "format": "cell-based",
  "settings": "for mitotic entry: human parthenotes",
  "procedure": "Embryos, mouse and human, were cultured in Global Total (Life-Global) for the duration of the experiments and with added compounds as outlined below. Incubation in RNA polymerase inhibitors triptolide (1 mM) or alpha amanitin (20 mg/ml) was performed from the 2PN stage (day1) to day3 of human development. Incubation in aphidicolin was performed at 2 mM. […] Mirin was used at a concentration of 50 mM. Olaparib was used to inhibit PARP at a concentration of 10 mM. All experiments were conducted during incubation at 37° C. with 5% CO2 and 19-20% O2. Chemical stock solutions were prepared in DMSO at concentrations at least 1000× higher than the final concentration.\nArtificial activation of human MII oocytes was performed using two pulses of 2.7 kV/cm at 50 ms using ECFG21 (Nepagene) in fusion buffer consisting of 0.25 M d-sorbitol buffer containing 0.1 mM calcium acetate, 0.5 mM magnesium acetate, 0.5 mM HEPES, and 1 mg ml^−1 fatty-acid-free BSA as previously described (Tachibana et al., 2013). Thereafter, oocytes were incubated for 3.5-4 h in 10 mg/ml puromycin, followed by a wash step and following culture in Global total.",
  "note": "“Also recorded” adds a separate entry of the source.",
  "data": [
    {"smiles": "C[C@@]1(CO)[C@H](O)CC[C@@]2(C)[C@H]1CC[C@H]1C[C@@H]3C[C@@]12CC[C@]3(O)CO", "note": "[aphidicolin]", "values": [
      {"measurement": "mitotic entry", "setting": "incubation at 14 h", "value": "prevented mitotic entry"},
      {"measurement": "mitotic entry", "setting": "incubation at 15.5 h, compared with controls", "value": "allowed mitotic entry with a delay"},
      {"measurement": "mitotic entry timing", "setting": "human, incubation at 18 h", "value": "no effects; also recorded: did not delay"}
    ]}
  ]
}
